Key:
[1] = biological target: VHL Elongin B/C complex (Homo sapiens (Human), UniProt P40337); assay: Fluorescence Polarization (FP) VHL Binding Assay; settings: VHL binding, FP assay; geometric mean where more than one measurement
Outline: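 FP tracer competition using His6-tagged human VHL (E55-D213) co-expressed with Elongin B and C in E. coli, final 2.64 nM, with TAMRA-labelled VHL ligand probe at 1.67 nM final. Buffer 50 mM Tris pH 8.0, 120 mM NaCl, 0.005% NP-40, 1% DMSO; 1 h at room temperature. Pre-assay compound/protein signal subtracted; IC50 from four-parameter fit.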

[2] = biological target: NanoLuc VHL fusion protein (Homo sapiens (Human), UniProt P40337); assay: VHL HEK-293 BRET Assay (NanoBRET Target Engagement); assay type: cell-based; settings: geometric mean where more than one measurement
Experimental: The VHL NanoBRET™ Target Engagement Assay analyzes the apparent affinity of test compounds for VHL in cells by competitive displacement of a VHL NanoBRET™ tracer reversibly bound to a NanoLuc® VHL fusion protein stably expressed in the cells. Test compounds were transferred to the assay plate (384 Well White Non-Binding Corning Assay Plates (Corning-3574)) using an Echo 555 Liquid Handler (Labcyte) in 2.5 nL increments and, as appropriate, intermediate stock concentrations of compounds, in order to prepare a titration series. 50 nL of control compound (10 mM; parental unlabeled VHL antagonist; see structure below) and 50 nL of DMSO (negative control) were dispensed into the appropriate control wells. DMSO was backfilled to a final volume of 50 nL as required. 50 nl per well of 1 mM VHL NanoBRET™ Tracer in DMSO (NanoBRET™ Tracer-PEG2-590 (see structure below)) was transferred into each well using an Echo 555 (ultimately yielding a final concentration of 1 uM). HEK 293 RT VHL-NanoLuc® stable cells were cultured in DMEM High Glucose with Pyruvate, 10% fetal bovine serum, 2 mg/mL of Geneticin Selective Antibiotic (50 mg/ml) and 2 mM HEPES (1 M). Cells were seeded in Opti-MEM (Life Technologies-11058-021), 1.7×10^5 cells/mL, 40 μl per well into the assay plate, centrifuged at 500 rpm for 30 seconds and incubated for 2 hours. Max Signal control wells consisted of DMSO only treated wells. Minimum Signal control wells contained of 10 uM parental unlabeled VHL antagonist (control compound—see structure below). 3× Complete Substrate plus Inhibitor Solution was prepared in Opti-MEM (consists of a 1:166 dilution of NanoBRET™ Nano-Glo® Substrate plus a 1:500 dilution of Extracellular NanoLuc® Inhibitor in Opti-MEM), and 20 ul was dispensed into each well of the 384-well plate and centrifuged at 1000 rpm for 1 minute, then incubated for 2 minutes at room temperature. Background Signal control wells were prepared without tracer for background correction steps. Plates were read using a PerkinElmer Envision Reader (model 2104-0020) equipped with Luminescence option (Mirror: BRET2 Enh (PE Barcode 659), Emission Filter: Omega 610LP (Barcode 504), 2nd Emission Filter: Umbelliferone 460 (Barcode 207), Measurement height: 6.5 mm, Measurement time: 1 s). The raw BRET ratio values were calculated by dividing the acceptor emission value (610 nm) by the donor emission value (460 nm) for each sample. To correct for background, the BRET ratio in the absence of tracer (average of no-tracer control samples) was subtracted from the BRET ratio of each sample. Raw BRET units were converted to milliBRET units (mBU) by multiplying each raw BRET value by 1,000. The normalized NanoBRET™ signal was calculated relative to the Max Signal control wells (DMSO treated control wells) and the Minimum Signal control wells. Percentage inhibition was calculated relative to the Minimum Signal control and Maximum Signal control wells. IC50 values were derived by four parameter curve fitting using the Robust method.

[3] = biological target: VHL co-expressed with Elongins B and C (Homo sapiens (Human), UniProt P40337); assay: Surface Plasmon Resonance Assay; assay type: binding; settings: SPR measured VHL affinity; geometric mean where more than one measurement
Outline: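 Avidin-tagged VHL co-expressed with Elongins B and C captured on a streptavidin chip. Compounds injected low-to-high concentration at 20 °C and 80 μL/min in 50 mM HEPES pH 7.2, 150 mM NaCl, 0.5 mM TCEP, 0.001% Tween 20, 0.2% PEG3350, 2% DMSO. Kinetic parameters from fits of binding curves.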

Chain of VHL co-expressed with Elongins B and C (P40337 whole entry, looked up): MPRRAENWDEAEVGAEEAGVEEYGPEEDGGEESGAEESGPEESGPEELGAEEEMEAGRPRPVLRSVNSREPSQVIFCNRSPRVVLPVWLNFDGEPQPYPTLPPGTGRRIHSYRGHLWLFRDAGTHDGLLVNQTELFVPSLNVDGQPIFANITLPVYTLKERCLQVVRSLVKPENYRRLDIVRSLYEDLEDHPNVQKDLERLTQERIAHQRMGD
Chain of VHL co-expressed with Elongins B and C (Q15370 whole entry partner, looked up): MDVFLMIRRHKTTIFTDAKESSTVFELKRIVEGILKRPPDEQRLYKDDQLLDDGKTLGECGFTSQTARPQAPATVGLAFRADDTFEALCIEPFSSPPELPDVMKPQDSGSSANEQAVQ
Chain of VHL co-expressed with Elongins B and C (Q15369 whole entry partner, looked up): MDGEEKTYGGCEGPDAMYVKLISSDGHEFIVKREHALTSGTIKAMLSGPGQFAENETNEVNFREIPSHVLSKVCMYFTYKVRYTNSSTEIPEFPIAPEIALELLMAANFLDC
Chain of NanoLuc VHL fusion protein (P40337 whole entry, looked up, the tested form may be a part): as the sequence (P40337 whole entry, looked up) above
Chain of NanoLuc VHL fusion protein (Q15370 whole entry partner, looked up, the tested form may be a part): as the sequence (Q15370 whole entry partner, looked up) above
Chain of NanoLuc VHL fusion protein (Q15369 whole entry partner, looked up, the tested form may be a part): as the sequence (Q15369 whole entry partner, looked up) above
Chain of VHL Elongin B/C complex (P40337 whole entry, looked up): as the sequence (P40337 whole entry, looked up) above
Chain of VHL Elongin B/C complex (Q15370 whole entry partner, looked up): as the sequence (Q15370 whole entry partner, looked up) above
Chain of VHL Elongin B/C complex (Q15369 whole entry partner, looked up): as the sequence (Q15369 whole entry partner, looked up) above

SMILES | IC50 [1] | IC50 [2] | Kd [3]
Cc1ncsc1-c1ccc([C@]2(C)NC(C3C[C@@H](O)CN3C(=O)[C@@H]3CCCCN3S(C)(=O)=O)=NC2=O)cc1 (single isomer, unassigned) [Example 122.2] | 16.7 µM | 39 µM | 6.83 µM
Cc1cc(C(C(=O)N2C[C@H](O)C[C@H]2C2=NN(c3ccccc3)C(C)(C)N2)C(C)C)on1 (single isomer, unassigned) [Example 135.1] | ≥ 400 µM | 100 µM | ≥ 150 µM
Cc1cc([C@H](C(=O)N2C[C@H](O)C[C@H]2C2=NO[C@@](c3ccccc3)(C(F)(F)F)N2)C(C)C)on1 (mixture of isomers) [Example 114.1, (2S)-1-((2S,4R)-4-Hydroxy-2-(5-phenyl-5-(trifluoromethyl)-4,5-dihydro-1,2,4-oxadiazol-3-yl)pyrrolidin-1-yl)-3-methyl-2-(3-methylisoxazol-5-yl)butan-1-one and (2R)-1-((2S,4R)-4-Hydroxy-2-(5-phenyl-5-(trifluoromethyl)-4,5-dihydro-1,2,4-oxadiazol-3-yl)pyrrolidin-1-yl)-3-methyl-2-(3-methylisoxazol-5-yl)butan-1-one] | 400 µM | 100 µM | 150 µM
CC(=O)N1CCC[C@H]1C(=O)N1C[C@H](O)CC1C1=NC(=O)[C@](C)(c2ccc(-c3scnc3C)cc2)N1 (single isomer, unassigned) [Example 121.1] | 65.5 µM | 100 µM | 29.2 µM
Cc1cc([C@@H](C(=O)N2C[C@H](O)C[C@H]2C2=NOC3(CCc4ccccc43)N2)C(C)C)on1 (single isomer, unassigned) [Example 130.1] | 96.1 µM | 100 µM | 83 µM
Cc1cc([C@H](C(=O)N2C[C@H](O)C[C@H]2C2=NOC(C)(c3ccccc3)N2)C(C)C)on1 (single isomer, unassigned) [Example 128.4] | 17.3 µM | 24.5 µM | 7.5 µM
Cc1noc(C(C(=O)N2C[C@H](O)CC2C2=NC(=O)[C@](C)(c3ccc(-c4scnc4C)cc3)N2)C(C)C)n1 (single isomer, unassigned) [Example 117.3] | ≥ 400 µM | 100 µM | 217 µM
Cc1ncsc1-c1ccc([C@]2(C)NC(C3C[C@@H](O)CN3C(=O)C(c3cn(C)nn3)C(C)C)=NC2=O)cc1 (single isomer, unassigned) [Example 118.4] | ≥ 400 µM | 100 µM | 102 µM
Cc1cc([C@H](C(=O)N2C[C@H](O)C[C@H]2C2=NOC3(CCc4ccccc43)N2)C(C)C)on1 (single isomer, unassigned) [Example 130.4] | 17.5 µM | 34.5 µM | 4.24 µM
Cc1cc([C@H](C(=O)N2C[C@H](O)C[C@H]2C2=NOC(C)(C)N2)C(C)C)on1 [Example 126.1, (R)-1-((2S,4R)-2-(5,5-dimethyl-4,5-dihydro-1,2,4-oxadiazol-3-yl)-4-hydroxypyrrolidin-1-yl)-3-methyl-2-(3-methylisoxazol-5-yl)butan-1-one] | 31.4 µM | 45.4 µM | 12.8 µM
CC/C(=C(\c1ccc(O)cc1)c1ccc(OCCN(C)C(=O)CCCOCCOc2cc(C(C(=O)N3C[C@H](O)CC3C3=NC(=O)[C@](C)(c4ccc(-c5scnc5C)cc4)N3)C(C)C)on2)cc1)c1ccccc1 (single isomer, unassigned) [Example 1003.3] | 30.4 µM | 51.6 µM | 67.1 µM
Cc1ncsc1-c1ccc([C@]2(C)NC(C3C[C@@H](O)CN3C(=O)C(c3cnn(C)c3)C(C)C)=NC2=O)cc1 (single isomer, unassigned) [Example 110.4] | ≥ 400 µM | ≥ 100 µM | 150 µM
Cc1ncsc1-c1ccc([C@]2(C)NC(C3C[C@@H](O)CN3C(=O)C3N(S(C)(=O)=O)CCC3(C)C)=NC2=O)cc1 (single isomer, unassigned) [Example 125.2] | ≥ 400 µM | 100 µM | ≥ 150 µM
Cc1ncsc1-c1ccc([C@]2(C)NC(C3C[C@@H](O)CN3C(=O)C(c3cnn(C)c3)C(C)C)=NC2=O)cc1 (single isomer, unassigned) [Example 110.3] | ≥ 400 µM | ≥ 100 µM | 150 µM
Cc1ncsc1-c1ccc([C@]2(C)NC(C3C[C@@H](O)CN3C(=O)C(c3cn(C)nn3)C(C)C)=NC2=O)cc1 (single isomer, unassigned) [Example 118.2] | 0.418 µM | 0.939 µM | 0.128 µM
Cc1cc(C(C(=O)N2C[C@H](O)CC2C2=NC(=O)[C@](C)(c3ccc(-c4scnc4C)cc3)N2)C(C)C)sn1 (single isomer, unassigned) [Example 119.3] | 72.4 µM | 71.1 µM | 17.5 µM
Cc1ncsc1-c1ccc([C@]2(C)NC(C3C[C@@H](O)CN3C(=O)C(c3cnn(C)c3)C(C)C)=NC2=O)cc1 (single isomer, unassigned) [Example 110.1] | 20.6 µM | 28.1 µM | 7.42 µM
Cc1ncsc1-c1ccc([C@]2(C)NC(C3C[C@@H](O)CN3C(=O)[C@@H]3CCCN3S(C)(=O)=O)=NC2=O)cc1 (single isomer, unassigned) [Example 112.1] | 23.3 µM | 66.4 µM | 12.1 µM
Cc1cc([C@@H](C(=O)N2C[C@H](O)C[C@H]2C2=NOC(C)(c3ccc(Br)cc3)N2)C(C)C)on1 (mixture of isomers) [Example 113.1, (2S)-1-((2S,4R)-2-(5-(4-Bromophenyl)-5-methyl-4,5-dihydro-1,2,4-oxadiazol-3-yl)-4-hydroxypyrrolidin-1-yl)-3-methyl-2-(3-methylisoxazol-5-yl)butan-1-one and (2R)-1-((2S,4R)-2-(5-(4-Bromophenyl)-5-methyl-4,5-dihydro-1,2,4-oxadiazol-3-yl)-4-hydroxypyrrolidin-1-yl)-3-methyl-2-(3-methylisoxazol-5-yl)butan-1-one] | 70.6 µM | 96.9 µM | 24.1 µM
CC(=O)N1CCCCC1C(=O)N1C[C@H](O)CC1C1=NC(=O)[C@](C)(c2ccc(-c3scnc3C)cc2)N1 (single isomer, unassigned) [Example 124.2] | 32.9 µM | 54.6 µM | 10.1 µM
Cc1cc([C@H](C(=O)N2C[C@H](O)C[C@H]2C2=NOC3(CCc4ccccc43)N2)C(C)C)on1 (single isomer, unassigned) [Example 130.3] | 17.6 µM | 16.2 µM | 4.69 µM
Cc1ncsc1-c1ccc([C@]2(C)NC(C3C[C@@H](O)CN3C(=O)C3N(S(C)(=O)=O)CCC3(C)C)=NC2=O)cc1 (single isomer, unassigned) [Example 125.1] | 179 µM | 100 µM | 14.7 µM
Cc1cc([C@@H](C(=O)N2C[C@H](O)C[C@H]2C2=NOC(C)(c3ccc(-c4scnc4C)cc3)N2)C(C)C)on1 (single isomer, unassigned) [Example 129.1] | 79 µM | 100 µM | 48.1 µM
Cc1cc(C(C(=O)N2C[C@H](O)CC2C2=NC(=O)[C@](C)(c3ccc(-c4scnc4C)cc3)N2)C(C)C)sn1 (single isomer, unassigned) [Example 119.2] | ≥ 400 µM | 100 µM | 150 µM
